Data as given in patent US6914045B2, “Glycopeptide antibiotics” (Wyeth Holdings Corporation, priority 2001, dated 2005).
≈ marks a conversion by molar mass, not a printed value.

Tests used:
[1] = system: Staphylococcus aureus-SMITH (GC 4543); assay: acute lethal infection in mice; assay type: in vivo; conditions: acute lethal infection, female CD-1 mice, intraperitoneal challenge, intravenous 30 min. after infection, 7 day survival
Summary of the method: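 Survival at 7 days, pooled from three independent tests, yields ED50 values. Treatment is intravenous, 30 min after ip infection of female CD-1 mice, using an inoculum lethal to untreated controls within 24-48 hr.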

Enterococcus sp. = assay: in vitro antibacterial evaluation, MIC by broth dilution; assay type: cell-based; conditions: broth dilution, 18 hours at 35° C.; for MIC Enterococcus faecalis (ATCC 29212): strain ATCC 29212; for MIC Enterococcus faecium (GC 2243): strain GC 2243; for MIC Enterococcus faecalis (GC 4552): strain GC 4552; for MIC Enterococcus faecalis (GC 4553): strain GC 4553; for MIC Enterococcus faecalis (GC 4554): strain GC 4554; for MIC Enterococcus faecium (GC 4556): strain GC 4556; for MIC Enterococcus faecium (GC 4557): strain GC 4557; for MIC Enterococcus avium (GC 4558): strain GC 4558; for MIC Enterococcus faecalis (GC 6189): strain GC 6189
Summary of the method: (§1)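 Broth dilution per NCCLS standard M7-A2 in Muller-Hinton II […], with an inoculum of 5×10^5 CFU/mL and antibiotic spanning 64-0.06 μg/mL. The MIC is the lowest concentration that inhibits growth of the organism.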

Staphylococcus sp. = assay: as above; assay type: cell-based; conditions: broth dilution, 18 hours at 35° C.; for MIC Staphylococcus aureus (GC 1131): strain GC 1131
Summary of the method: as §1

Streptococcus sp. = assay: as above; assay type: cell-based; conditions: broth dilution, 18 hours at 35° C.
Summary of the method: as §1

Escherichia coli = assay: as above; assay type: cell-based
Summary of the method: as §1

CC(c1ccccc1)C1NC(=O)CNC(=O)C(CO)NC(=O)C(C(O)C2CNC(=N)N2C2OC(CO)C(O)C(O)C2O)NC(=O)C(C(O)C2CNC(=N)N2)NC(=O)C(Cc2ccc(OC3OC(CO)C(OC4OC5COC(c6cc7c(cc6Cl)OCO7)OC5C(O)C4O)C(O)C3O)cc2)NC1=O (stereo not drawn) [Example 158, Cyclo[glycyl-β-methylphenylalanyl-O-[4-O-[4,6-O-[(6-chloro-1,3-benzodioxol-5-yl)-methylene]hexopyranosyl]hexopyranosyl]tyrosyl-3-(2-iminoimidazolidin-4-yl)seryl-3-(3-hexopyranosyl-2-iminoimidazolidin-4-yl)serylseryl]]
median effective dose (ED50), Staphylococcus aureus-SMITH (GC 4543) [1]: 0.14 mg/kg | MIC Enterococcus faecalis (GC 2242) (Enterococcus sp.; Enterococcus faecalis (GC 2242)): 4 µg/mL (≈ 2.74 µM) | MIC Enterococcus faecalis (GC 2691) (Enterococcus sp.; Enterococcus faecalis (GC 2691)): 4 µg/mL (≈ 2.74 µM) | MIC Enterococcus faecalis (GC 3059) (Enterococcus sp.; Enterococcus faecalis (GC 3059)): 4 µg/mL (≈ 2.74 µM) | MIC Enterococcus faecalis (ATCC 29212) (Enterococcus sp.; inoculum 5×10^5 CFU/mL): 4 µg/mL (≈ 2.74 µM) | MIC Enterococcus faecium (GC 2243) (Enterococcus sp.; inoculum 5×10^5 CFU/mL): 4 µg/mL (≈ 2.74 µM) | MIC Enterococcus faecalis (GC 4552) (Enterococcus sp.; inoculum 5×10^5 CFU/mL): 8 µg/mL (≈ 5.47 µM) | MIC Enterococcus faecalis (GC 4553) (Enterococcus sp.; inoculum 5×10^5 CFU/mL): 4 µg/mL (≈ 2.74 µM) | MIC Enterococcus faecalis (GC 4554) (Enterococcus sp.; inoculum 5×10^5 CFU/mL): 4 µg/mL (≈ 2.74 µM) | MIC Enterococcus faecium (GC 4556) (Enterococcus sp.; inoculum 5×10^5 CFU/mL): 8 µg/mL (≈ 5.47 µM) | MIC Enterococcus faecium (GC 4557) (Enterococcus sp.; inoculum 5×10^5 CFU/mL): 2 µg/mL (≈ 1.37 µM) | MIC Enterococcus avium (GC 4558) (Enterococcus sp.; inoculum 5×10^5 CFU/mL): 4 µg/mL (≈ 2.74 µM) | MIC Enterococcus faecalis (GC 6189) (Enterococcus sp.; inoculum 5×10^5 CFU/mL): 4 µg/mL (≈ 2.74 µM) | MIC Enterococcus faecalis (ATCC 29212) (Enterococcus sp.): 4 µg/mL (≈ 2.74 µM) | MIC Enterococcus faecalis (GC 2242) (Enterococcus sp.; strain GC 2242): 4 µg/mL (≈ 2.74 µM) | MIC Enterococcus faecium (GC 2243) (Enterococcus sp.): 4 µg/mL (≈ 2.74 µM) | MIC Enterococcus faecalis (GC 2691) (Enterococcus sp.; strain GC 2691): 4 µg/mL (≈ 2.74 µM) | MIC Enterococcus faecalis (GC 3059) (Enterococcus sp.; strain GC 3059): 4 µg/mL (≈ 2.74 µM) | MIC Enterococcus faecalis (GC 4552) (Enterococcus sp.): 8 µg/mL (≈ 5.47 µM) | MIC Enterococcus faecalis (GC 4553) (Enterococcus sp.): 4 µg/mL (≈ 2.74 µM) | MIC Enterococcus faecalis (GC 4554) (Enterococcus sp.): 4 µg/mL (≈ 2.74 µM) | MIC Enterococcus faecium (GC 4556) (Enterococcus sp.): 8 µg/mL (≈ 5.47 µM) | MIC Enterococcus faecium (GC 4557) (Enterococcus sp.): 2 µg/mL (≈ 1.37 µM) | MIC Enterococcus avium (GC 4558) (Enterococcus sp.): 4 µg/mL (≈ 2.74 µM) | MIC Enterococcus faecalis (GC 6189) (Enterococcus sp.): 4 µg/mL (≈ 2.74 µM) | MIC Staphylococcus aureus (GC 1131) (Staphylococcus sp.; inoculum 5×10^5 CFU/mL): 2 µg/mL (≈ 1.37 µM) | MIC Staphylococcus aureus (ATCC 29213) (Staphylococcus sp.; strain ATCC 29213): 2 µg/mL (≈ 1.37 µM) | MIC Staphylococcus aureus (GC 1131) (Staphylococcus sp.): 2 µg/mL (≈ 1.37 µM) | MIC Staphylococcus aureus (GC 3051) (Staphylococcus sp.; strain GC 3051): 1 µg/mL (≈ 0.684 µM) | MIC Staphylococcus aureus (GC 3053) (Staphylococcus sp.; strain GC 3053): 2 µg/mL (≈ 1.37 µM) | MIC Staphylococcus aureus (GC 4541) (Staphylococcus sp.; strain GC 4541): 1 µg/mL (≈ 0.684 µM) | MIC Staphylococcus aureus (GC 4542) (Staphylococcus sp.; strain GC 4542): 1 µg/mL (≈ 0.684 µM) | MIC Staphylococcus aureus-SMITH (GC 4543) (Staphylococcus sp.; strain GC 4543): 2 µg/mL (≈ 1.37 µM) | MIC Staphylococcus aureus (GC 4544) (Staphylococcus sp.; strain GC 4544): 2 µg/mL (≈ 1.37 µM) | MIC Staphylococcus aureus (GC 4545) (Staphylococcus sp.; strain GC 4545): 2 µg/mL (≈ 1.37 µM) | MIC Staphylococcus haemolyticus (GC 4546) (Staphylococcus sp.; strain GC 4546): 0.5 µg/mL (≈ 0.342 µM) | MIC Coagulase Negative Staphylococcus (GC 4547) (Staphylococcus sp.; strain GC 4547): 2 µg/mL (≈ 1.37 µM) | MIC Coagulase Negative Staphylococcus (GC 4548) (Staphylococcus sp.; strain GC 4548): 1 µg/mL (≈ 0.684 µM) | MIC Coagulase Negative Staphylococcus (GC 4549) (Staphylococcus sp.; strain GC 4549): 1 µg/mL (≈ 0.684 µM) | MIC Coagulase Negative Staphylococcus (GC 4551) (Staphylococcus sp.; strain GC 4551): 2 µg/mL (≈ 1.37 µM) | MIC Coagulase Negative Staphylococcus (GC 6257) (Staphylococcus sp.; strain GC 6257): 1 µg/mL (≈ 0.684 µM) | MIC Staphylococcus aureus-SMITH (GC 4543) (Staphylococcus sp.; strain SMITH GC 4543): 2 µg/mL (≈ 1.37 µM) | MIC Streptococcus agalactiae (GC 4564) (Streptococcus sp.; Streptococcus agalactiae (GC 4564)): 0.25 µg/mL (≈ 0.171 µM) | MIC Streptococcus pneumoniae (ATCC 6301) (Streptococcus sp.; Streptococcus pneumoniae (ATCC 6301)): 0.12 µg/mL (≈ 0.0821 µM) | MIC Streptococcus pneumoniae (GC 1894) (Streptococcus sp.; Streptococcus pneumoniae (GC 1894)): <0.06 µg/mL | MIC Streptococcus pneumoniae (GC 4565) (Streptococcus sp.; Streptococcus pneumoniae (GC 4565)): <0.06 µg/mL | MIC Streptococcus pyogenes (GC 4563) (Streptococcus sp.; Streptococcus pyogenes (GC 4563)): 0.25 µg/mL (≈ 0.171 µM) | MIC Streptococcus pneumoniae (ATCC 6301) (Streptococcus sp.; strain ATCC 6301): 0.12 µg/mL (≈ 0.0821 µM) | MIC Streptococcus pneumoniae (GC 1894) (Streptococcus sp.; strain GC 1894): <0.06 µg/mL | MIC Streptococcus pyogenes (GC 4563) (Streptococcus sp.; strain GC 4563): 0.25 µg/mL (≈ 0.171 µM) | MIC Streptococcus agalactiae (GC 4564) (Streptococcus sp.; strain GC 4564): 0.25 µg/mL (≈ 0.171 µM) | MIC Streptococcus pneumoniae (GC 4565) (Streptococcus sp.; strain GC 4565): <0.06 µg/mL | MIC Escherichia coli (ATCC 25922) (Escherichia coli; strain ATCC 25922, 18 hours at 35° C.): 64 µg/mL (≈ 43.8 µM) | MIC Escherichia coli (GC 4559) (Escherichia coli; strain GC 4559, 18 hours at 35° C.): 64 µg/mL (≈ 43.8 µM) | MIC Escherichia coli (GC 4560) (Escherichia coli; strain GC 4560, 18 hours at 35° C.): 1 µg/mL (≈ 0.684 µM)
